Experiments:
[1] = IV and PO single dose pharmacokinetic studies in SD rats; format: in vivo; settings: Sprague-Dawley, rat, plasma, male SD rats, oral gavage 20 mg/kg vs IV bolus 2 mg/kg
Description: The pharmacokinetics of selected compounds was characterized in male Sprague-Dawley (SD) rats (250-300 g). […] The intravenous (IV) dosing vehicle was 5% ethanol and 95% of 20% 2-hydroxypropyl β-cyclodextrin in water. The oral dosing vehicle was 33% of Microemulsion Preconcentrate #5 (a lipid based self-emulsifying drug delivery system, SEDDS) and 67% of 50 mM citrate buffer (final pH 3.6).
Serial blood samples (approximately 0.3 mL each) were collected from jugular vein or other suitable vein at specified time points. For the IV dosing group, the blood samples were collected predose and at 0.08, 0.25, 0.50, 1, 3, 6, 8, and 24 hours after the start of dosing. For the oral group, the blood samples were collected predose and at 0.08, 0.25, 0.50, 1, 3, 6, 8, and 24 hours after dosing. The blood samples were collected into VACUTAINER™ tubes containing EDTA-K3 as the anti-coagulant and were centrifuged at approximately 4° C. to obtain plasma. The plasma samples were stored at −20° C. until analysis by LC/MS/MS.
A bioanalytical method utilizing high performance liquid chromatography coupled to tandem mass spectrometry (LC/MS/MS) was developed for analysis of the selected compound in rat plasma. Detection was performed using multiple reaction monitoring (MRM); Ions representing the precursor (M+H)^+ species was selected in quadrupole 1 (Q1) and collided with nitrogen gas in the collision cell (Q2) to generate specific product ion, which was subsequently monitored by quadrupole 3 (Q3). Standard curve and quality control samples were prepared in male rat plasma and processed in the same way as the test samples to generate quantitative data.
Pharmacokinetic parameters were generated using non-compartmental pharmacokinetic analysis (Phoenix WinNonlin, version 6.3). Values below the lower limit of quantification (LLOQ) were assigned a value of zero if predose and treated as missing thereafter. Area under the curve (AUC) was calculated using the linear trapezoidal rule. The oral bioavailability (% F) was determined by comparison of the area under the curve (AUC) of the compound in plasma following oral administration to that generated following intravenous administration.

GT2a-3a-S52 replicon = assay: Stable replicon assay, comparison to daclatasvir, GT2a-3a-S52; format: cell-based; settings: Hepatitis C virus
Text: The plasmid pSG-hRlucNeo-JFH1 was generated from pSG-Neo-JFH1 (Kato et al. 2003, Gastroentrology 125:1808-1817). A fragment containing the JFH-1 5′ NTR-hRluc-Neo gene and two unique restriction sites (AgeI and PmeI) was synthesized (Integrated DNA Technologies, Coralville, Iowa). The resulting plasmid was digested with AgeI and PmeI and the excised fragment (5′NTR-hRluc-Neo) was ligated into pSG-Neo-JFH1 digested with the same enzymes to generate pSG-hRlucNeo-JFH1. To allow expression of heterologous NS5A sequences, an NS5A shuttle vector was generated from pSG-Neo-JFH1, in which the entire coding sequence of NS5A plus the first eight codons of NS5B were replaced with an AfeI restriction site. This was done by Infusion cloning (Clontech, Mountain View, Calif.) from two PCR products that were generated using pSG-Neo-JFH1 as a template and the following primer pairs: […]
Stable HCV replicon cell lines were grown in complete media (Dulbecco's modified Eagle medium [DMEM], 2 mM L-glutamine, 0.1 mM essential amino acids, 1 mM sodium pyruvate, 10% fetal bovine serum) with the addition 500 μg/ml […] (G418). […] For stable and transient replicon assays, luciferase activity of compound-treated cells was measured relative to DMSO-treated cells after 72 h incubation using RENILLA-GLO™ Luciferase Assay (Promega). […]

[2] = system: HCV genotype 1a replicon, NS5A Q30H; assay: Transient replication assay, GT1a NS5A Q30H; format: cell-based; settings: Hepatitis C virus

Compound `COC(=O)N[C@H](C(=O)N1C[C@]2(CCCOC2)C[C@H]1c1ncc(-c2ccc(-c3ccc4c(ccc5nc([C@@H]6C[C@@H]7CCC[C@@H]7N6C(=O)[C@@H](NC(=O)OC)C(C)C)[nH]c54)c3)cc2)[nH]1)C(C)C` [Compound 16] has a bioavailability [1] of 23.7%, an EC50 (GT2a-3a-S52 replicon) of 0.54 nM and an EC50 [2] of 0.006 nM.
With `COC(=O)N[C@H](C(=O)N1CCC[C@H]1c1nc(-c2ccc(-c3ccc(-c4c[nH]c([C@@H]5CCCN5C(=O)[C@@H](NC(=O)OC)C(C)C)n4)cc3)cc2)c[nH]1)C(C)C` [Daclatasvir, reference compound] the EC50 (GT2a-3a-S52 replicon) was 0.39 nM and the EC50 [2] was 0.8 nM.

Source: patent US10407445B2, “Hepatitis C virus inhibitors” (ENANTA PHARMACEUTICALS, INC., priority 2013, dated 2019)
